Measured values taken from patent publication US9302999B2, “Substituted triazoles as herbicides” (E. I. DU PONT DE NEMOURS AND COMPANY, priority 2012, dated 2016).

Columns and labels:
Format in all cases: in vivo
[1] = tested on: foxtail, giant (giant foxtail, Setaria faberii); assay: Test C pre-/postemergence: foxtail, giant
From the text: (§1) Seeds of plant species selected from blackgrass (Alopecurus myosuroides), bromegrass, downy (downy bromegrass, Bromus tectorum), foxtail, green (green foxtail, Setaria viridis), ryegrass, Italian (Italian ryegrass, Lolium multiflorum), winter wheat (Triticum aestivum), wild oat (Avena fatua), galium (catchweed bedstraw, Galium aparine), bermudagrass (Cynodon dactylon), surinam grass (Brachiaria decumbens), cocklebur (common cocklebur, Xanthium strumarium), corn (Zea mays), large crabgrass (Digitaria sanguinalis), woolly cupgrass (Eriochloa villosa), foxtail, giant (giant foxtail, Setaria faberii), goosegrass (Eleusine indica), johnsongrass (Sorghum halepense), kochia (Kochia scoparia), lambsquarters (Chenopodium album), morningglory (Ipomoea coccinea), nightshade (eastern black nightshade, Solanum ptycanthum), nutsedge, yellow (yellow nutsedge, Cyperus esculentus), pigweed (Amaranthus retroflexus), ragweed (common ragweed, Ambrosia elation), soybean (Glycine max), common (oilseed) sunflower (Helianthus annuus), Russian thistle (Salsola kali) and velvetleaf (Abutilon theophrasti) were planted into a blend of loam soil and sand and treated preemergence with test chemicals formulated in a non-phytotoxic solvent mixture which included a surfactant.
(§2) At the same time, plants selected from these crop and weed species and also barley (winter barley, Hordeum vulgare), canarygrass (Phalaris minor), chickweed (common chickweed, Stellaria media) windgrass (Apera spica-venti) and deadnettle (henbit deadnettle, Lamium amplexicaule) were planted in pots containing Redi-Earth® planting medium (Scotts Company, 14111 Scottslawn Road, Marysville, Ohio 43041) comprising spaghnum peat moss, vermiculite, wetting agent and starter nutrients and treated with postemergence applications of test chemicals formulated in the same manner. Plants ranged in height from 2 to 18 cm (1- to 4-leaf stage) for postemergence treatments.
(§3) Treated plants and controls were maintained in a greenhouse for 13 to 15 days, after which time all species were compared to controls and visually evaluated. Plant response ratings, summarized in Table C, are based on a scale of 0 to 100 where 0 is no effect and 100 is complete control. A dash (-) response means no test result.

corn (Zea mays) = assay: Test C pre-/postemergence: corn
From the text: as §1, §2, §3

[2] = tested on: blackgrass (Alopecurus myosuroides); assay: Test C pre-/postemergence: blackgrass
From the text: as §1, §2, §3

[3] = tested on: winter wheat (Triticum aestivum); assay: Test C pre-/postemergence: winter wheat
From the text: as §1, §2, §3

[4] = tested on: velvetleaf (Abutilon theophrasti); assay: Test C pre-/postemergence: velvetleaf
From the text: as §1, §2, §3

[5] = tested on: johnsongrass (Sorghum halepense); assay: Test C pre-/postemergence: johnsongrass
From the text: as §1, §2, §3

soybean (Glycine max) = assay: Test C pre-/postemergence: soybean
From the text: as §1, §2, §3

[6] = tested on: pigweed (Amaranthus retroflexus); assay: Test C pre-/postemergence: pigweed
From the text: as §1, §2, §3

kochia (Kochia scoparia) = assay: Test C pre-/postemergence: kochia
From the text: as §1, §2, §3

[7] = Postemergence, 31 g ai/ha, scale 0 to 100 (0 no effect, 100 complete control)
[8] = Postemergence, 62 g ai/ha, scale 0 to 100 (0 no effect, 100 complete control)
[9] = Postemergence, 125 g ai/ha, scale 0 to 100, 0 no effect, 100 complete control
[10] = Postemergence, 250 g ai/ha, scale 0 to 100
[11] = Preemergence, 31 g ai/ha, scale of 0 to 100, 0 is no effect, 100 is complete control
[12] = Preemergence, 62 g ai/ha, scale of 0 to 100, 0 is no effect, 100 is complete control
[13] = Preemergence, 125 g ai/ha, scale 0 to 100, 0 no effect, 100 complete control
[14] = Preemergence, 250 g ai/ha, scale 0 to 100, 0 no effect, 100 complete control
[15] = Preemergence, 62 g ai/ha, scale 0 to 100, 0 no effect, 100 complete control
[16] = Postemergence, 16 g ai/ha, scale 0 to 100, 0 no effect, 100 complete control
[17] = Preemergence, 16 g ai/ha, scale 0 (no effect) to 100 (complete control)

FC(F)(F)COc1nn(-c2ccc(C(F)(F)F)cc2)nc1Cc1ccnc(C(F)(F)F)c1 [Compound 14, 4-[[5-(2,2,2-trifluoroethoxy)-2-[4-(trifluoromethyl)phenyl]-2H-1,2,3-triazol-4-yl]methyl]-2-(trifluoromethyl)pyridine]
Plant response rating, Foxtail, Giant [1, 7]: 10
Plant response rating, Foxtail, Giant [1, 8]: 15
Plant response rating, Foxtail, Giant [1, 9]: 30
Plant response rating, Foxtail, Giant [1, 10]: 35
Plant response rating, Foxtail, Giant [1, 11]: 95
Plant response rating, Foxtail, Giant [1, 12]: 98
Plant response rating, Foxtail, Giant [1, 13]: 100
Plant response rating, Foxtail, Giant [1, 14]: 100
Plant response rating, Corn (corn (Zea mays); [7]): 5
Plant response rating, Corn (corn (Zea mays); [8]): 10
Plant response rating, Corn (corn (Zea mays); [9]): 15
Plant response rating, Corn (corn (Zea mays); [10]): 15
Plant response rating, Corn (corn (Zea mays); [11]): 0
Plant response rating, Corn (corn (Zea mays); [15]): 0
Plant response rating, Corn (corn (Zea mays); [13]): 5
Plant response rating, Corn (corn (Zea mays); [14]): 10
Plant response rating, Blackgrass [2, 7]: 15
Plant response rating, Blackgrass [2, 8]: 40
Plant response rating, Blackgrass [2, 9]: 60
Plant response rating, Blackgrass [2, 10]: 85
Plant response rating, Blackgrass [2, 11]: 5
Plant response rating, Blackgrass [2, 15]: 40
Plant response rating, Blackgrass [2, 13]: 85
Plant response rating, Blackgrass [2, 14]: 98
Plant response rating, Wheat [3, 7]: 30
Plant response rating, Wheat [3, 8]: 35
Plant response rating, Wheat [3, 9]: 40
Plant response rating, Wheat [3, 10]: 45
Plant response rating, Wheat [3, 11]: 0
Plant response rating, Wheat [3, 12]: 15
Plant response rating, Wheat [3, 13]: 35
Plant response rating, Wheat [3, 14]: 45
Plant response rating, Velvetleaf [4, 7]: 75
Plant response rating, Velvetleaf [4, 8]: 80
Plant response rating, Velvetleaf [4, 9]: 85
Plant response rating, Velvetleaf [4, 10]: 90
Plant response rating, Velvetleaf [4, 11]: 10
Plant response rating, Velvetleaf [4, 12]: 10
Plant response rating, Velvetleaf [4, 13]: 70
Plant response rating, Velvetleaf [4, 14]: 75
Plant response rating, Johnsongrass [5, 7]: 20
Plant response rating, Johnsongrass [5, 8]: 20
Plant response rating, Johnsongrass [5, 9]: 55
Plant response rating, Johnsongrass [5, 10]: 75
Plant response rating, Johnsongrass [5, 11]: 20
Plant response rating, Johnsongrass [5, 12]: 45
Plant response rating, Johnsongrass [5, 13]: 80
Plant response rating, Johnsongrass [5, 14]: 85
Plant response rating, Soybean (soybean (Glycine max); [7]): 25
Plant response rating, Soybean (soybean (Glycine max); [8]): 25
Plant response rating, Soybean (soybean (Glycine max); [9]): 30
Plant response rating, Soybean (soybean (Glycine max); [10]): 35
Plant response rating, Soybean (soybean (Glycine max); [11]): 0
Plant response rating, Soybean (soybean (Glycine max); [12]): 0
Plant response rating, Soybean (soybean (Glycine max); [13]): 0
Plant response rating, Soybean (soybean (Glycine max); [14]): 0
Plant response rating, Pigweed [6, 7]: 45
Plant response rating, Pigweed [6, 8]: 60
Plant response rating, Pigweed [6, 9]: 80
Plant response rating, Pigweed [6, 10]: 85
Plant response rating, Pigweed [6, 11]: 100
Plant response rating, Pigweed [6, 12]: 100
Plant response rating, Pigweed [6, 13]: 100
Plant response rating, Pigweed [6, 14]: 100
Plant response rating, Kochia (kochia (Kochia scoparia); [7]): 90
Plant response rating, Kochia (kochia (Kochia scoparia); [8]): 95
Plant response rating, Kochia (kochia (Kochia scoparia); [9]): 95
Plant response rating, Kochia (kochia (Kochia scoparia); [10]): 95
Plant response rating, Kochia (kochia (Kochia scoparia); [11]): 0
Plant response rating, Kochia (kochia (Kochia scoparia); [12]): 0
Plant response rating, Kochia (kochia (Kochia scoparia); [13]): 75
Plant response rating, Kochia (kochia (Kochia scoparia); [14]): 85

COc1nn(-c2ccc(C(F)(F)F)cc2)nc1Cc1ccnc(C(F)(F)F)c1 [Compound 15, 4-[[5-methoxy-2-[4-(trifluoromethyl)phenyl]-2H-1,2,3-triazol-4-yl]methyl]-2-(trifluoromethyl)pyridine]
Plant response rating, Foxtail, Giant [1, 16]: 5
Plant response rating, Foxtail, Giant [1, 7]: 10
Plant response rating, Foxtail, Giant [1, 8]: 10
Plant response rating, Foxtail, Giant [1, 9]: 75
Plant response rating, Foxtail, Giant [1, 17]: 95
Plant response rating, Foxtail, Giant [1, 11]: 95
Plant response rating, Foxtail, Giant [1, 12]: 100
Plant response rating, Foxtail, Giant [1, 13]: 100
Plant response rating, Corn (corn (Zea mays); [16]): 0
Plant response rating, Corn (corn (Zea mays); [7]): 5
Plant response rating, Corn (corn (Zea mays); [8]): 15
Plant response rating, Corn (corn (Zea mays); [9]): 35
Plant response rating, Corn (corn (Zea mays); [17]): 0
Plant response rating, Corn (corn (Zea mays); [11]): 0
Plant response rating, Corn (corn (Zea mays); [15]): 0
Plant response rating, Corn (corn (Zea mays); [13]): 10
Plant response rating, Blackgrass [2, 16]: 20
Plant response rating, Blackgrass [2, 7]: 30
Plant response rating, Blackgrass [2, 8]: 60
Plant response rating, Blackgrass [2, 9]: 80
Plant response rating, Blackgrass [2, 17]: 15
Plant response rating, Blackgrass [2, 11]: 50
Plant response rating, Blackgrass [2, 15]: 85
Plant response rating, Blackgrass [2, 13]: 95
Plant response rating, Wheat [3, 16]: 15
Plant response rating, Wheat [3, 7]: 25
Plant response rating, Wheat [3, 8]: 35
Plant response rating, Wheat [3, 9]: 35
Plant response rating, Wheat [3, 17]: 0
Plant response rating, Wheat [3, 11]: 10
Plant response rating, Wheat [3, 12]: 25
Plant response rating, Wheat [3, 13]: 50
Plant response rating, Velvetleaf [4, 16]: 60
Plant response rating, Velvetleaf [4, 7]: 60
Plant response rating, Velvetleaf [4, 8]: 60
Plant response rating, Velvetleaf [4, 9]: 90
Plant response rating, Velvetleaf [4, 17]: 0
Plant response rating, Velvetleaf [4, 11]: 0
Plant response rating, Velvetleaf [4, 12]: 20
Plant response rating, Velvetleaf [4, 13]: 80
Plant response rating, Johnsongrass [5, 16]: 0
Plant response rating, Johnsongrass [5, 7]: 45
Plant response rating, Johnsongrass [5, 8]: 60
Plant response rating, Johnsongrass [5, 9]: 80
Plant response rating, Johnsongrass [5, 17]: 15
Plant response rating, Johnsongrass [5, 11]: 55
Plant response rating, Johnsongrass [5, 12]: 85
Plant response rating, Johnsongrass [5, 13]: 90
Plant response rating, Soybean (soybean (Glycine max); [16]): 10
Plant response rating, Soybean (soybean (Glycine max); [7]): 10
Plant response rating, Soybean (soybean (Glycine max); [8]): 35
Plant response rating, Soybean (soybean (Glycine max); [9]): 45
Plant response rating, Soybean (soybean (Glycine max); [17]): 0
Plant response rating, Soybean (soybean (Glycine max); [11]): 0
Plant response rating, Soybean (soybean (Glycine max); [12]): 0
Plant response rating, Soybean (soybean (Glycine max); [13]): 25
Plant response rating, Pigweed [6, 16]: 5
Plant response rating, Pigweed [6, 7]: 60
Plant response rating, Pigweed [6, 8]: 70
Plant response rating, Pigweed [6, 9]: 90
Plant response rating, Pigweed [6, 17]: 98
Plant response rating, Pigweed [6, 11]: 100
Plant response rating, Pigweed [6, 12]: 100
Plant response rating, Pigweed [6, 13]: 100
Plant response rating, Kochia (kochia (Kochia scoparia); [16]): 90
Plant response rating, Kochia (kochia (Kochia scoparia); [7]): 95
Plant response rating, Kochia (kochia (Kochia scoparia); [8]): 95
Plant response rating, Kochia (kochia (Kochia scoparia); [9]): 95
Plant response rating, Kochia (kochia (Kochia scoparia); [17]): 0
Plant response rating, Kochia (kochia (Kochia scoparia); [11]): 70
Plant response rating, Kochia (kochia (Kochia scoparia); [12]): 70
Plant response rating, Kochia (kochia (Kochia scoparia); [13]): 85
